Key:
[1] = tested on: normal NK cells expanded with K562-aAPC; experiment: percent inhibition of viability; higher = more inhibition; details: 72 h, IL-2 2.5 ng/mL
Description: (§1)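 Drug sensitivity and resistance testing on K562-aAPC-expanded normal NK cells: 5 concentrations (10-fold steps over a 10,000-fold range), 72 h at 37 °C, viability by CellTiter-Glo normalised to DMSO and benzethonium chloride controls; DSS from the fitted curve.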

[2] = tested on: DERL-7 (IL-2 2.5 ng/mL); experiment: as above; details: 72 h
[3] = tested on: IMC-1 (IL-2 20 ng/mL); experiment: as above; details: 72 h
[4] = tested on: KAI3 (IL-2 2.5 ng/mL); experiment: as above; details: 72 h
[5] = tested on: KHYG-1 (IL-2 2.5 ng/mL); experiment: as above; details: 72 h
[6] = tested on: NK-92 (IL-2 2.5 ng/mL); experiment: as above; details: 72 h
[7] = tested on: NK-YS (IL-2 2.5 ng/mL); experiment: as above; details: 72 h
[8] = tested on: NKL (IL-2 2.5 ng/mL); experiment: as above; details: 72 h
[9] = tested on: SNK-6 (IL-2 2.5 ng/mL); experiment: as above; details: 72 h
[10] = tested on: YT (IL-2 2.5 ng/mL); experiment: as above; details: 72 h
[11] = tested on: normal primary NK cells, pool 1 (3 donors) (IL-2 2.5 ng/mL); experiment: as above; details: 72 h
[12] = tested on: normal primary NK cells, pool 1 (3 donors), resting (IL-2 0 ng/mL); experiment: as above; details: 72 h
[13] = tested on: normal primary NK cells, pool 2 (3 donors) (IL-2 2.5 ng/mL); experiment: as above; details: 72 h
[14] = tested on: normal primary NK cells, pool 3 (3 donors) (IL-2 2.5 ng/mL); experiment: as above; details: 72 h
[15] = tested on: normal NK cells expanded with K562-aAPC; experiment: drug sensitivity score (DSS) (DSS units); higher = more sensitive; extreme values may be limits of the assay; details: 72 h; IL-2 2.5 ng/mL
Description: as §1

[16] = tested on: DERL-7 (IL-2 2.5 ng/mL); experiment: as above; details: 72 h
[17] = tested on: IMC-1 (IL-2 20 ng/mL); experiment: as above; details: 72 h
[18] = tested on: KAI3 (IL-2 2.5 ng/mL); experiment: as above; details: 72 h
[19] = tested on: KHYG-1 (IL-2 2.5 ng/mL); experiment: as above; details: 72 h
[20] = tested on: NK-92 (IL-2 2.5 ng/mL); experiment: as above; details: 72 h
[21] = tested on: NK-YS (IL-2 2.5 ng/mL); experiment: as above; details: 72 h
[22] = tested on: NKL (IL-2 2.5 ng/mL); experiment: as above; details: 72 h
[23] = tested on: SNK-6 (IL-2 2.5 ng/mL); experiment: as above; details: 72 h
[24] = tested on: YT (IL-2 2.5 ng/mL); experiment: as above; details: 72 h
[25] = tested on: normal primary NK cells, pool 1 (3 donors) (IL-2 2.5 ng/mL); experiment: as above; details: 72 h
[26] = tested on: normal primary NK cells, pool 1 (3 donors), resting (IL-2 0 ng/mL); experiment: as above; details: 72 h
[27] = tested on: normal primary NK cells, pool 2 (3 donors) (IL-2 2.5 ng/mL); experiment: as above; details: 72 h
[28] = tested on: normal primary NK cells, pool 3 (3 donors) (IL-2 2.5 ng/mL); experiment: as above; details: 72 h

S=P(N1CC1)(N1CC1)N1CC1 [Thio-TEPA] (max concentration tested 50000 nM)
percent inhibition of viability [%]
Details	5 nM	50 nM	500 nM	5000 nM	50000 nM
[1]	-5.81	-5.71	-4.89	3.45	9
[2]	1.93	5.03	-0.04	1.45	3.25
[3]	-2.71	-4.91	-3.42	-4.6	8.77
[4]	-3.61	-4.29	12.8	35.4	69.6
[5]	-7.42	-4.16	1.44	6.58	8.07
[6]	-3.47	8.15	14.3	25.1	37.1
[7]	-1.57	-3.69	3	9.54	24.2
[8]	-8.09	4.28	15.5	33.8	72.4
[9]	-0.04	-12.4	-4.8	-5.86	41.2
[10]	-4.88	-5.74	1.43	6.47	8.31
[11]	0.27	11.7	6.98	8.81	2.16
[12]	-8.22	7.58	6.34	14.9	17.1
[13]	-1.52	9.19	11.7	8.43	19.8
[14]	-5.53	7.66	3.04	4.82	3.08

Details	drug sensitivity score
[15]	0
[16]	0
[17]	0
[18]	8.32
[19]	0
[20]	5.84
[21]	1.65
[22]	8.54
[23]	1.69
[24]	0
[25]	0
[26]	1.68
[27]	1.52
[28]	0

CCOc1cc2ncc(C#N)c(Nc3ccc(OCc4ccccn4)c(Cl)c3)c2cc1NC(=O)/C=C/CN(C)C [Neratinib] (max concentration tested 1000 nM)
percent inhibition of viability [%]
Details	0.1 nM	1 nM	10 nM	100 nM	1000 nM
[1]	-2.53	0.83	-1.65	8.19	50
[2]	-7.68	3.12	6.29	8.45	68.9
[3]	-2.69	-1.05	1.8	4.28	1.07
[4]	-4.25	-5.47	-6.36	0.65	48.1
[5]	4.6	-0.87	25.1	2.37	22
[6]	3.19	-13.2	7.23	7.67	55.4
[7]	-2.05	-4.96	-1.85	-5.03	15.2
[8]	-1.48	12.9	8.45	12.5	40.4
[9]	11	16.1	38.2	6.35	35.7
[10]	1.33	4.12	5.46	1.01	10.2
[11]	-6.45	-7.28	-6.63	-9.14	36.2
[12]	-2.47	-22.5	-7.51	-6.96	70.1
[13]	-8.13	-2.28	2.22	-1.98	33.3
[14]	-13.9	-5.37	-1.66	-10.9	18.9

Details	drug sensitivity score
[15]	4.02
[16]	5.21
[17]	0
[18]	2.59
[19]	1.72
[20]	4.28
[21]	0.13
[22]	3.24
[23]	0
[24]	0
[25]	1.29
[26]	3.36
[27]	1.38
[28]	0.26
